According to US7544814B2, “[3.2.0] Heterocyclic compounds and methods of using the same” (Nereus Pharmaceuticals, Inc., priority 2004, dated 2009):
Values joined by “and” are separate entries in the source; they are usually repeats but may differ in a detail not shown here. Equal values may be shown once. Read-outs that look alike come from different tables or passages of the source.

Tests used:
NF-κB = experiment: NF-κB-mediated luciferase reporter gene assay, HEK293 NF-κB/Luc cells, TNF-α stimulation; assay type: cell-based, human; details: for EC50: Homo sapiens; for effect on luciferase activity upon TNF-α stimulation, in words: pretreatment of NF-κB/Luc 293 cells
Method in brief: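 Cells seeded at 1.5×10^4/well in phenol-red free DMEM, pretreated 1 h with 8-point half-log compound dilutions (DMSO stocks), then stimulated with TNF-α (10 μl of 50 ng/ml solution) for 6 h. Luciferase read as RLU after 10 min with Steady Lite reagent at room temperature.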

[1] = target: T1, trypsin-like activity of purified rabbit muscle 20S proteasome (Oryctolagus cuniculus, UniProt G1SWK8); experiment: biochemical
T1 sequence (G1SWK8 1-271): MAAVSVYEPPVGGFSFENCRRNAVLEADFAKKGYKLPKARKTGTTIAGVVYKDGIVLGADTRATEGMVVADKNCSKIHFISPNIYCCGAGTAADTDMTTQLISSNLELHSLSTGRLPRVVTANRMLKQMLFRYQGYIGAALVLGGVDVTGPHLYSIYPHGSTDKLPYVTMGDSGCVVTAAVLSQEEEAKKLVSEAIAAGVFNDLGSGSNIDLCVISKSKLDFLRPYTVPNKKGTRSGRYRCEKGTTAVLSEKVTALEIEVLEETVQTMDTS

[2] = target: T2, caspase-like activity of purified rabbit muscle 20S proteasome (Oryctolagus cuniculus, UniProt A0A5F9DQW2); experiment: In vitro inhibition of 20S proteasome caspase-like activity (Z-LLE-AMC)
T2 sequence (A0A5F9DQW2 1-212): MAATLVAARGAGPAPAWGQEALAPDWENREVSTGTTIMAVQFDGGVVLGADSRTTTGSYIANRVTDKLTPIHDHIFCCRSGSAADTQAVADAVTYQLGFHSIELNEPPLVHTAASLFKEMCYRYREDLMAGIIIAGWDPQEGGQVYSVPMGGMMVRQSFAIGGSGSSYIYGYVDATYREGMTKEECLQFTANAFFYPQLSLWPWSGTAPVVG

U266 = experiment: Cell growth inhibition (resazurin), U266; details: for EC50: 48 hours drug exposure; for cytotoxicity against U266, in words: from EC50 values
[3] = target: T1, trypsin-like activity of purified rabbit muscle 20S proteasome; experiment: In vitro inhibition of 20S proteasome trypsin-like activity (Boc-LRR-AMC); details: under the conditions tested
[4] = target: T3, chymotrypsin-like activity of purified rabbit muscle 20S proteasome (Oryctolagus cuniculus, UniProt G1T4Q9); experiment: In vitro inhibition of 20S proteasome chymotrypsin-like activity (suc-LLVY-AMC)
T3 sequence (G1T4Q9 1-263): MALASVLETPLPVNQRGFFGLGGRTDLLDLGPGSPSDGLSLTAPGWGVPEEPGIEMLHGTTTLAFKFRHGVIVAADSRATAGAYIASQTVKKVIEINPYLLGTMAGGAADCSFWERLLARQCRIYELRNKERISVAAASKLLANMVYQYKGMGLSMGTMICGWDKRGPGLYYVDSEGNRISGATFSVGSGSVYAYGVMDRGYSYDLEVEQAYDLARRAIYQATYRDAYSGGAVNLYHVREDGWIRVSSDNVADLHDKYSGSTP

RPMI 8226 = experiment: Cell growth inhibition (resazurin), RPMI 8226; details: for EC50: Homo sapiens; for cytotoxicity against RPMI 8226, in words: from EC50 values
[5] = HEK293, read-out: NF-κB EC50, Table 12
[6] = Proteasome Caspase-like EC50, Table 12
[7] = EC50 Chymotrypsin-like, Table 6, values in nM
[8] = Proteasome Chymotrypsin-like EC50, Table 12
[9] = RPMI-8226, read-out: Cytotoxicity RPMI EC50, Table 12

With C[C@H]1C(=O)N[C@@]2(C(O)[C@@H]3C=CCCC3)C(=O)O[C@@]12C (single isomer, unassigned) [Formula II-20] the EC50 (NF-κB; [5]) was 849 ± 225 nM, the “effect on luciferase activity upon TNF-α stimulation, in words” value (NF-κB) was “dose-dependent decrease” and the EC50 [1] was 318 nM and 321 nM. For the same compound, the EC50 ([2]; EC50 Caspase-like, Table 6, values in μM) was 1.4 µM, the EC50 ([2]; EC50 values, caspase-like activity, range in mixed units, summary of Table 6, range from nM to μM) was 0.956 to 8.7 µM and the EC50 [2, 6] was 1.42 µM. The EC50 (U266; Homo sapiens, U-266, 48 h, read-out: U266 EC50, Table 2) was 310 nM, the “cytotoxicity against U266, in words” value (U266) was “cytotoxic” and the EC50 (U266; read-out: U266 EC50, Table 2) was 442 nM. For the same compound, the “inhibition of the trypsin-like activity of the 20S proteasome, in words” value [3] was “able to inhibit”, the EC50 [4, 7] was 7.7 ± 3 nM and the EC50 [4, 8] was 7.7 ± 3 nM. For the same compound, the EC50 (RPMI 8226; RPMI-8226, 48 h, read-out: RPMI 8226 EC50, Table 2, 48 hours drug exposure, mean ± SD where n≥3) was 8510 ± 3260 nM, the EC50 (RPMI 8226; [9]) was 8510 ± 3260 nM and the “cytotoxicity against RPMI 8226, in words” value (RPMI 8226) was “cytotoxic”.
For C[C@@]12OC(=O)[C@]1([C@@H](O)[C@@H]1C=CCCC1)NC(=O)[C@@H]2CCBr [Formula II-18], the EC50 (NF-κB; HEK293, read-out: EC50, NF-κB-mediated luciferase reporter gene assay, Table 5, values in nM, 1 hr pretreatment, TNF-α 6 hr) was 9 nM, the EC50 (NF-κB; [5]) was 11 nM and the “effect on luciferase activity upon TNF-α stimulation, in words” value (NF-κB) was “dose-dependent decrease”. The EC50 ([2]; EC50 Caspase-like, Table 6, values in nM) was 0.286 µM and 0.213 µM, the EC50 ([2]; EC50 values, caspase-like activity, summary of Table 6) was 0.213 to 0.85 µM and the EC50 [2, 6] was 0.286 µM and 0.213 µM. The “cytotoxicity against U266, in words” value (U266) was “cytotoxic”, the “inhibition of the trypsin-like activity of the 20S proteasome, in words” value [3] was “able to inhibit” and the EC50 [4, 7] was 2.3 nM. The EC50 ([4]; EC50 values, chymotrypsin-like activity, summary of Table 6) was 2 to 11 nM, the EC50 [4, 8] was 2.3 nM and 2 nM and the EC50 (RPMI 8226; [9]) was 6.3 nM. For the same compound, the “cytotoxicity against RPMI 8226, in words” value (RPMI 8226) was “cytotoxic”.
